In patent US9718781B2, “Methods and compounds for treating proliferative disorders and viral infections” (University College Dublin, National University of Ireland, …, priority 2012, dated 2017):

How the values were obtained:
TPα = molecular target: T1, TPα (Homo sapiens, UniProt P21731); assay: U46619-induced [Ca2+]i mobilization in HEK.TPα cells; format: cell-based; conditions: for remaining activity at 1 µM: antagonist 1 μM, read-out: Percentage of Control, TPα, 1 μM; for remaining activity at 1 µM / remaining activity at 10 µM: % of agonist-induced response in vehicle-treated cells; for remaining activity at 10 µM: antagonist 10 μM, read-out: Percentage of Control, TPα, 10 μM
T1 construct: expressed in transfected cells
T1 sequence (P21731 1-343): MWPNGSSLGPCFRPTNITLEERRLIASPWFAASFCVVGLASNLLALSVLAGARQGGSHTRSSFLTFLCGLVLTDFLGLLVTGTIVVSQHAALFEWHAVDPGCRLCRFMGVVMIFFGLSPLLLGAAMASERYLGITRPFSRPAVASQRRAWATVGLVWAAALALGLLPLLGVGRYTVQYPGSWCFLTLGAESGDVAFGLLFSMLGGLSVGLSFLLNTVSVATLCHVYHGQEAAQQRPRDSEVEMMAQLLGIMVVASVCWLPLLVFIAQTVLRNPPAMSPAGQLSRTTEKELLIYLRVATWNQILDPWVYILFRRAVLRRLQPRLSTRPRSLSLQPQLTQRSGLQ
Excerpt: (§1) An appropriate functional test for the evaluation of the agonistic and/or antagonistic potency of the compounds of the invention is the determination of calcium flux. Both TPα and TPβ are coupled to the G-protein Gαq. Therefore, stimulation of these receptors ultimately leads to a release of intracellular calcium ([Ca^2+]i) from intracellular stores. Consequently, the determination of [Ca^2+]i flux represents an appropriate functional test for the evaluation of the agonistic/antagonistic potency of compounds of the invention. Calcium can be measured using a molecule characterized by the covalent combination of a Ca^2+ chelating group and a fluorophore group. The Ca^2+ binding properties of these indicators are formed by the presence of a tetracarboxylic acid core as found for example in EGTA (Ethylene Glycol bis(2-aminoethyl)Tetraacetic Acid). Binding of Ca^2+ produces a wavelength shift in either the excitation or emission fluorescence spectra or a change in the emission intensity. Whereas the Ca^2+ binding to EGTA is pH dependent, recent dyes are designed from an EGTA derivative, BAPTA (1,2-Bis(2-Aminophenoxy)ethane-N,N,N′,N′-Tetraacetic Acid). Loading of these dyes inside cells commonly uses esterified forms (acetoxymethyl ester), which are able to cross the cell membranes and are subsequently hydrolyzed by esterases inside the cell.
(§2) Estimation of [Ca^2+]i flux is calculated from the fluorescence signal (F). For calibration, the maximal fluorescence (Fmax, Ca^2+-saturated form of the dye) as well as minimal fluorescence (Fmin, Ca^2+-free form of the dye) must be determined. These parameters are determined usually in situ after the experiment, for example by subsequent addition to the mixture of a cell-disrupting agent that releases all Ca^2+ such as Triton X100 and a potent Ca^2+-chelating agent such as EGTA. After subtraction of background fluorescence, [Ca^2+]; flux can be calculated for non-ratiometric indicators.
(§3) Intracellular [Ca^2+]; fluxes were measured using a fluorescence plate reader following a modified protocol of Kassack et al., ‘Quantitative comparison of functional screening by measuring intracellular Ca^2+ with radioligand binding at recombinant human dopamine receptors’, AAPS Pharmsci, 2002, 4(4); 102-111, in cell lines (e.g. HEK293 or other cell type) endogenously-expressing or over-expressing either TPα, TPβ or any other receptor or protein to be screened.
(§4) By way of example, HEK 293 cells which have been grown for 3-4 days in normal growth media (minimum essential media containing 10% FBS and 2 mmol/1 L-glutamine), under normal growth conditions (37° C., in humidified 5% CO2 atmosphere) are washed and harvested in KREBs-HEPES buffer (118 mM NaCl, 4.7 mM KCl, 1.2 mM MgSO4, 1.2 mM KH2PO4, 4.2 mM NaHCO3, 11.7 mM D-glucose, 1.3 mM CaCl2, 10 mM HEPES, pH 7.4). Cells are then incubated with 3 μM Fluo-4 in KREBs-HEPES buffer containing 1% Pluoronic F-127, for 1 hr at 25° C. with agitation. Then, cells are washed in KREBs-HEPES buffer containing 0.5% BSA and re-suspended at a final concentration of 3×10^5 cells/ml. Approx. 5.4×10^4 cells per well are plated in a 96-well plate and pre-incubated with test compounds for 10 m prior to measuring the fluorescence intensity at 520 nm for 25 seconds at 1 s intervals to monitor baseline using the Fluoroskan Ascent. Agonist (e.g., 1 μM U46619) is injected into separate wells by the automatic pipettor and fluorescence intensity is monitored at 520 nm for 75 seconds at 1 s intervals. Thereafter, Triton X100 and EGTA are added sequentially where Fmax refers to maximal fluorescence intensity measured after permeabilization of the cells with 2% Triton X100 and Fmin refers to fluorescence intensity measured after addition of 1 mM EGTA.
(§5) The dye Fluo-4 has its excitation peak at 480 nm, in the visible spectra, which spare cells to be damaged by UV (340-360 nm) stimulation and reduces auto-fluorescence of cells. […]

TPβ = molecular target: T2, TPβ (Homo sapiens, UniProt P21731); assay: U46619-induced [Ca2+]i mobilization in HEK.TPβ cells; format: cell-based; conditions: 1 μM U46619; for remaining activity at 1 µM / activity class in HEK.TPβ cells: antagonist 1 μM; for remaining activity at 1 µM / remaining activity at 10 µM: % of agonist-induced response in vehicle-treated cells; for remaining activity at 1 µM: read-out: Percentage of Control, TPβ, 1 μM; for remaining activity at 10 µM: antagonist 10 μM, read-out: Percentage of Control, TPβ, 10 μM
T2 construct: expressed in transfected cells
Excerpt: as §1, §2, §3, §4, §5

T2 sequence (P21731 1-407 isoform P21731-2): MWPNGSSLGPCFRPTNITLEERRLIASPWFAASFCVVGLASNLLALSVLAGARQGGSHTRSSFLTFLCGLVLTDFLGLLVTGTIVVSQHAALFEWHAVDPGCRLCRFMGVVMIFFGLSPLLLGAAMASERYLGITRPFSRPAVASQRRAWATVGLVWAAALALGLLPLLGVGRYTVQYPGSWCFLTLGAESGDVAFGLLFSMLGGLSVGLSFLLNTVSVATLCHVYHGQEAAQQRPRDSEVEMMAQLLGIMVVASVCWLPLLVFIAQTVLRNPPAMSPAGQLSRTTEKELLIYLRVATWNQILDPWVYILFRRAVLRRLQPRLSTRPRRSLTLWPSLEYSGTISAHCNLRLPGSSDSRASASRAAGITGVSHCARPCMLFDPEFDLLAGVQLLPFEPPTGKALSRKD

| Structure (SMILES) | remaining activity at 1 µM (TPα; 1 μM U46619) | remaining activity at 10 µM (TPα; 1 μM U46619) | remaining activity at 1 µM (TPβ) | remaining activity at 10 µM (TPβ) | IC50 (TPα; HEK.TPα cells, 1 μM U46619, Table 2, read-out: IC50 data for U46619-mediated [Ca2+]i mobilization, TPα) | TPα:TPβ Selectivity Ratio (TPα; IC50 TPα/IC50 TPβ) | IC50 (TPβ; HEK.TPβ cells, Table 2, read-out: IC50 data for U46619-mediated [Ca2+]i mobilization, TPβ) | activity class in HEK.TPβ cells (TPβ) |
| --- | --- | --- | --- | --- | --- | --- | --- | --- |
| Cc1ccc(Nc2ccc([N+](=O)[O-])cc2S(=O)(=O)NC(=O)NC(C)(C)C)cc1 [BM573, reference compound] | 48.5 ± 1.77% | 12 ± 0.76% | 23.8 ± 0.68% | 9.9 ± 1.8% | – | – | – | – |
| CCCCCNC(=O)NS(=O)(=O)c1cc([N+](=O)[O-])ccc1Oc1cccc(-c2ccc(C)cc2)c1 [IX] | – | – | – | – | 11.6 µM | 7.5 | 1.54 µM | – |
| COc1ccc(-c2cccc(Oc3ccc(N)cc3S(=O)(=O)NC(=O)NC(C)(C)C)c2)cc1 [NTP1, 5-amino-N-(tert-butylcarbamoyl)-2-((4′-methoxy-[1,1′-biphenyl]-3-yl)oxy)benzene-sulfonamide] | 77.8 ± 8.71% | 50.2 ± 6.39% | 101 ± 4.75% | 102 ± 4.15% | – | – | – | – |
| COc1ccc(-c2cccc(Oc3ccc(C(=O)N(C)C)cc3S(=O)(=O)NC(=O)NC(C)(C)C)c2)cc1 [NTP2, 3-(N-(tert-butylcarbamoyl)sulfamoyl)-4-((4′-methoxy-[1,1′-biphenyl]-3-yl)oxy)-N,N-dimethylbenzamide] | 85 ± 2.71% | 54.9 ± 3.32% | 102 ± 3.59% | 90.1 ± 2.78% | – | – | – | – |
| COc1ccc(-c2cccc(Oc3ccc(C(F)(F)F)cc3S(=O)(=O)NC(=O)NC(C)(C)C)c2)cc1 [NTP3, N-(tert-butylcarbamoyl)-2-((4′-methoxy-[1,1′-biphenyl]-3-yl)oxy)-5-(trifluoromethyl)benzenesulfonamide] | 69.6 ± 5.35% | 41.6 ± 5.45% | 46 ± 5.92% | 14.8 ± 2.44% | – | – | – | ACTIVE |
| COc1ccc(-c2cccc(Oc3ccc(C(=O)O)cc3S(=O)(=O)NC(=O)NC(C)(C)C)c2)cc1 [NTP5, 3-(N-(tert-butylcarbamoyl)sulfamoyl)-4-((4′-methoxy-[1,1′-biphenyl]-3-yl)oxy)benzoic acid] | 98.7 ± 9.29% | 61.7 ± 1.42% | 88.3 ± 5.27% | 72 ± 3.87% | – | – | – | – |
| CCn1cc(-c2ccc(Oc3cccc(-c4ccc(OC)cc4)c3)c(S(=O)(=O)NC(=O)NC(C)(C)C)c2)cn1 [NTP6, N-(tert-butylcarbamoyl)-5-(1-ethyl-1H-pyrazol-4-yl)-2-((4′-methoxy-[1,1′-biphenyl]-3-yl)oxy)benzenesulfonamide] | 88.6 ± 14.5% | 45.1 ± 5.75% | 94.4 ± 7.7% | 57.4 ± 6.86% | – | – | – | – |
| COc1ccc(-c2cccc(Oc3ccc(Br)cc3S(=O)(=O)NC(=O)NC(C)(C)C)c2)cc1 [NTP7, 5-bromo-N-(tert-butylcarbamoyl)-2-((4′-methoxy-[1,1′-biphenyl]-3-yl)oxy)benzenesulfonamide] | 61.5 ± 7.7% | 32.5 ± 3.95% | 49 ± 4.41% | 12.2 ± 1.93% | – | – | – | ACTIVE |
| COc1ccc(-c2cccc(Oc3ccc(F)cc3S(=O)(=O)NC(=O)NC(C)(C)C)c2)cc1 [NTP8, N-(tert-butylcarbamoyl)-5-fluoro-2-((4′-methoxy-[1,1′-biphenyl]-3-yl)oxy)benzene-sulfonamide] | 68 ± 5.05% | 49.9 ± 6.91% | 59.4 ± 1.85% | 14.6 ± 2.72% | – | – | – | ACTIVE |
| COc1ccc(-c2cccc(Oc3ccc(C(C)=O)cc3S(=O)(=O)NC(=O)NC(C)(C)C)c2)cc1 [NTP9, 5-acetyl-N-(tert-butylcarbamoyl)-2-((4′-methoxy-[1,1′-biphenyl]-3-yl)oxy)benzenesulfonamide] | 85.9 ± 9.13% | 70.4 ± 2.47% | 46.3 ± 7.33% | 12.2 ± 1.03% | – | – | – | – |
